# According to US9221832B2, “Heterocyclic amide derivatives as P2X7 receptor antagonists” (ACTELION PHARMACEUTICALS LTD., priority 2011, dated 2015):
# Target: human recombinant P2X7 receptor (Homo sapiens (Human), UniProt Q99572)
# Test: YO-PRO assay: P2X7 receptor antagonistic activity
# Assay type: cell-based
# Settings: HEK cells expressing human P2X7
# human recombinant P2X7 receptor, sequence (Q99572 whole entry): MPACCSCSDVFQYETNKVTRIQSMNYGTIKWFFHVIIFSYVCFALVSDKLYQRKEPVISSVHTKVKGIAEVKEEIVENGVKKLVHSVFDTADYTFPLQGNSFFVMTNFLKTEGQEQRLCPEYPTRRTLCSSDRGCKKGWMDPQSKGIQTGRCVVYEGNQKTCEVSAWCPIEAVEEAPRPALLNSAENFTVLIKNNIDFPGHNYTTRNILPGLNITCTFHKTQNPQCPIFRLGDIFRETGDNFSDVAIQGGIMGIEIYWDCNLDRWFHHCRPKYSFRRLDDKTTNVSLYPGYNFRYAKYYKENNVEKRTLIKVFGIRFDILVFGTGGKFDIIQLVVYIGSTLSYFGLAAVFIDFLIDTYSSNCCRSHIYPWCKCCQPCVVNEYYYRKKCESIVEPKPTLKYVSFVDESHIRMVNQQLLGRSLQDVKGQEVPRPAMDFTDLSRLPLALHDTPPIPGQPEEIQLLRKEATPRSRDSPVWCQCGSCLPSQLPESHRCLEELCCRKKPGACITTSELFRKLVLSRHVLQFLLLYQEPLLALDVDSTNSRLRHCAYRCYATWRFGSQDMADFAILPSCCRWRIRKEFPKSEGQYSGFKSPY
row,IC50,SMILES
1,40 nM,"N#Cc1cccc(CC(=O)NC2COc3ncccc32)c1Cl (single isomer, unassigned) [Example 99, 2-(2-Chloro-3-cyano-phenyl)-N-2,3-dihydro-furo[2,3-b]pyridin-3-yl-acetamide]"
2,598 nM,"Cc1cc(Cl)cc(Cl)c1CC(=O)NC1COc2cnccc21 (single isomer, unassigned) [Example 101, 2-(2,4-Dichloro-6-methyl-phenyl)-N-2,3-dihydro-furo[2,3-c]pyridin-3-yl-acetamide]"
3,2.2 nM,"Cc1cc(Cl)cc(Cl)c1CC(=O)NC1COc2cnccc21 (single isomer, unassigned) [Example 102, 2-(2,4-Dichloro-6-methyl-phenyl)-N-2,3-dihydro-furo[2,3-c]pyridin-3-yl-acetamide]"
4,160 nM,"O=C(NC1COc2ncccc21)C1CCc2cc(Cl)cc(Cl)c21 (single isomer, unassigned) [Example 146, 5,7-dichloro-N-(2,3-dihydrofuro[2,3-b]pyridin-3-yl)-2,3-dihydro-1H-indene-1-carboxamide]"
5,40 nM,"O=C(NC1COc2ncccc21)C1CCc2cc(Cl)cc(Cl)c21 (single isomer, unassigned) [Example 147, 5,7-dichloro-N-(2,3-dihydrofuro[2,3-b]pyridin-3-yl)-2,3-dihydro-1H-indene-1-carboxamide]"
6,828 nM,"CC(C(=O)NC1COc2ncccc21)c1ccc(Cl)cc1 (centres unmarked) [Example 23, 2-(4-Chloro-phenyl)-N-(2,3-dihydro-furo[2,3-b]pyridin-3-yl)-propionamide]"
7,1520 nM,"CC(C(=O)NC1CCOc2ncccc21)c1ccc(Cl)cc1 (centres unmarked) [Example 64, 2-(4-Chloro-phenyl)-N-(3,4-dihydro-2H-pyrano[2,3-b]pyridin-4-yl)-propionamide]"
8,21 nM,"O=C(NC1COc2ncccc21)C(CO)c1ccc(Cl)cc1Cl (centres unmarked) [Example 79, 2-(2,4-Dichloro-phenyl)-N-2,3-dihydro-furo[2,3-b]pyridin-3-yl-3-hydroxy-propionamide]"
9,1970 nM,"O=C(NC1COc2ncccc21)C(CN1CCCC1)c1ccc(Cl)cc1Cl (centres unmarked) [Example 81, 2-(2,4-Dichloro-phenyl)-N-2,3-dihydro-furo[2,3-b]pyridin-3-yl-3-pyrrolidin-1-yl-propionamide]"
10,55 nM,"CCC(C(=O)NC1COc2ncccc21)c1ccc(Cl)cc1Cl (centres unmarked) [Example 84, 2-(2,4-Dichloro-phenyl)-N-2,3-dihydro-furo[2,3-b]pyridin-3-yl-butyramide]"
11,15 nM,"CC(C(=O)NC1COc2ncccc21)c1ccc(Cl)cc1Cl (centres unmarked) [Example 85, 2-(2,4-Dichloro-phenyl)-N-2,3-dihydro-furo[2,3-b]pyridin-3-yl-propionamide]"
12,33 nM,"[2H]C([2H])([2H])C(C(=O)NC1COc2ncccc21)c1ccc(Cl)cc1Cl (centres unmarked) [Example 86, 2-(2,4-Dichloro-phenyl)-2-trideuteromethyl-N-2,3-dihydro-furo[2,3-b]pyridin-3-yl-acetamide]"
13,137 nM,"O=C(NC1COc2ncccc21)C1CCc2cc(Cl)cc(Cl)c21 (centres unmarked) [Example 130, 5,7-dichloro-N-(2,3-dihydrofuro[2,3-b]pyridin-3-yl)-2,3-dihydro-1H-indene-1-carboxamide]"
14,4690 nM,"O=C(NC1COc2ncccc21)C1Cc2ccc(Cl)cc2C1 (centres unmarked) [Example 149, 5-chloro-N-(2,3-dihydrofuro[2,3-b]pyridin-3-yl)-2,3-dihydro-1H-indene-2-carboxamide]"
